Our source for the GI50 and TGI values is PubChem BioAssay (NCI).

Molecules are shown by their SMILES.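 Exposure lasted 48 hours, with cells grown in 96-well plates and compounds tested at five concentrations. GI50 marks 50% less growth. Definition used: TGI = concentration required for complete inhibition of growth.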

Among the test systems are HCT-116 colon; SW-620 colon; NCI-H23 lung; SF-295 CNS; MCF7 breast; SK-MEL-28 melanoma; SNB-19 CNS; HS 578T breast; LOX IMVI melanoma; TK-10 renal.
Holding throughout (test): NCI tumour cell line growth inhibition, 48 h

For `COc1ccc(C2CC(c3ccc(N(C)C)cc3)=NN2c2ccc(S(N)(=O)=O)cc2)cc1` (configuration not stated), the GI50 was 2.12 µM in the experiment with HCT-116 colon; 4.06 µM with SW-620 colon; 3.13 µM with NCI-H23 lung; 3.42 µM in the experiment on SF-295 CNS; 3 µM with MCF7 breast; 4.81 µM in the experiment with SK-MEL-28 melanoma. The GI50 with SNB-19 CNS is 5.94 µM; in the experiment with HS 578T breast it was 5.52 µM; with LOX IMVI melanoma, 1.87 µM; in the experiment on TK-10 renal it was 4.32 µM. Further, the TGI was 4.77 µM in the experiment on HCT-116 colon; more than 100 µM with SW-620 colon; more than 100 µM in the experiment with NCI-H23 lung; more than 100 µM in the experiment with SF-295 CNS; 21.7 µM in the experiment with MCF7 breast; 93.8 µM with SK-MEL-28 melanoma. Also, the TGI in the experiment with SNB-19 CNS is more than 100 µM; with HS 578T breast, 42.6 µM; in the experiment on LOX IMVI melanoma, 4.02 µM; in the experiment on TK-10 renal, 35 µM.

With `O=C1/C(=C/c2ccccc2[N+](=O)[O-])COc2ccc(O)cc21`, the GI50 is 0.352 µM in the experiment with HCT-116 colon; 0.448 µM in the experiment with SW-620 colon; 1.59 µM with NCI-H23 lung; 7.13 µM in the experiment on SF-295 CNS; 0.697 µM with MCF7 breast; 1.55 µM in the experiment on SK-MEL-28 melanoma. Also, the GI50 with SNB-19 CNS was 4.15 µM; in the experiment on HS 578T breast, 2.39 µM; in the experiment with LOX IMVI melanoma, 1.05 µM; in the experiment with TK-10 renal, 3.44 µM. Also, the TGI amounted to 1.57 µM in the experiment on HCT-116 colon; 1.81 µM with SW-620 colon; 4.41 µM in the experiment on NCI-H23 lung; 25.6 µM in the experiment on SF-295 CNS; 8.75 µM with MCF7 breast; 3.14 µM with SK-MEL-28 melanoma. Further, the TGI was found to be 16.6 µM in the experiment with SNB-19 CNS, 41.6 µM with HS 578T breast, 2.27 µM with LOX IMVI melanoma and 13.9 µM in the experiment with TK-10 renal.

As to `N#CC1C(N)=NNC12Nc1ccccc1S2` (configuration not stated), the GI50 in the experiment on HCT-116 colon was 11.5 µM; in the experiment with SW-620 colon it was 31.2 µM; in the experiment on NCI-H23 lung, 5.23 µM; with SF-295 CNS, 17.2 µM; in the experiment with MCF7 breast, 37.5 µM; with SNB-19 CNS, 28.6 µM. Besides, the GI50 in the experiment on HS 578T breast was 17.4 µM; in the experiment with LOX IMVI melanoma it was 18.4 µM; in the experiment on TK-10 renal it was 41.5 µM. Moreover, the TGI in the experiment with HCT-116 colon was 35.9 µM; in the experiment on SW-620 colon, more than 100 µM; in the experiment with NCI-H23 lung it was 22.8 µM; in the experiment on SF-295 CNS, 64.2 µM; in the experiment on MCF7 breast, more than 100 µM; in the experiment on SNB-19 CNS, more than 100 µM. Besides, the figures for the TGI with HS 578T breast, in the experiment on LOX IMVI melanoma and in the experiment on TK-10 renal were 71.7 µM, 37.6 µM and more than 100 µM, respectively.

Turning to `Cn1c(C(=O)c2cccc3ccccc23)nc2ccccc21`, the GI50 in the experiment on HCT-116 colon was more than 100 µM; in the experiment on SW-620 colon, more than 100 µM; in the experiment on NCI-H23 lung, more than 100 µM; in the experiment with SF-295 CNS, more than 100 µM; in the experiment with MCF7 breast, 3.81 µM; in the experiment with SK-MEL-28 melanoma, more than 100 µM. Also, the GI50 in the experiment with SNB-19 CNS, with HS 578T breast, with LOX IMVI melanoma and in the experiment on TK-10 renal was more than 100 µM in each case. Moreover, the TGI with HCT-116 colon, with SW-620 colon, in the experiment with NCI-H23 lung, with SF-295 CNS, in the experiment with MCF7 breast and in the experiment on SK-MEL-28 melanoma was more than 100 µM each time. Moreover, the TGI in the experiment on SNB-19 CNS, in the experiment with HS 578T breast, in the experiment on LOX IMVI melanoma and in the experiment with TK-10 renal was more than 100 µM in each case.

Turning to `Fc1ccc2nc(-c3nc(-c4ccccc4)n4ccccc34)[nH]c2c1`, the GI50 in the experiment with HCT-116 colon was 2 µM; in the experiment on SW-620 colon, 3.97 µM; with NCI-H23 lung, 3.54 µM; in the experiment on MCF7 breast it was 1.37 µM; in the experiment with SK-MEL-28 melanoma, 2.13 µM; with SNB-19 CNS, 2.37 µM. In addition, the values for the GI50 in the experiment on HS 578T breast, in the experiment with LOX IMVI melanoma and in the experiment with TK-10 renal were 3.56 µM, 4.86 µM and 3.25 µM, respectively. For the same molecule, the TGI in the experiment on HCT-116 colon was found to be 3.82 µM; in the experiment on SW-620 colon, 17.3 µM; in the experiment with NCI-H23 lung, 17 µM; in the experiment with MCF7 breast it was 5.59 µM; with SK-MEL-28 melanoma, 5.51 µM; in the experiment with SNB-19 CNS it was 6.22 µM. For the same molecule, the TGI with HS 578T breast is 25 µM; with LOX IMVI melanoma, 20.2 µM; with TK-10 renal it was 6.72 µM.

Consider `CC1CCN(CCOc2ccc(CNc3ccc4nc(CCC5CCCCC5)[nH]c4c3)cc2)CC1`, for which the GI50 was 1.4 µM in the experiment with HCT-116 colon; 1.7 µM in the experiment with SW-620 colon; 1.89 µM with NCI-H23 lung; 1.87 µM in the experiment on SF-295 CNS; 1.73 µM with MCF7 breast; 2.03 µM in the experiment on SNB-19 CNS. Also, the GI50 in the experiment on HS 578T breast is 1.67 µM; in the experiment with LOX IMVI melanoma it was 1.67 µM; in the experiment on TK-10 renal it was 2.24 µM. Also, the TGI was found to be 2.72 µM in the experiment on HCT-116 colon; 3.35 µM with SW-620 colon; 3.98 µM in the experiment on NCI-H23 lung; 3.46 µM in the experiment on SF-295 CNS; 3.8 µM in the experiment on MCF7 breast; 4.2 µM in the experiment on SNB-19 CNS. For the same molecule, the TGI is 4.06 µM in the experiment with HS 578T breast, 3.1 µM with LOX IMVI melanoma and 4.92 µM in the experiment with TK-10 renal.

On to `Clc1ccc([I+]c2ccc(Cl)cc2Cl)c(Cl)c1`, for which the GI50 in the experiment on HCT-116 colon is 1.85 µM; in the experiment with SW-620 colon, 1.25 µM; in the experiment with NCI-H23 lung it was 2.13 µM; with SF-295 CNS, 2.58 µM; in the experiment on MCF7 breast, 1.87 µM; in the experiment with SK-MEL-28 melanoma it was 7.14 µM. In addition, the GI50 in the experiment with SNB-19 CNS was 4.28 µM; with HS 578T breast it was 2.48 µM; with LOX IMVI melanoma it was 1.77 µM. For the same molecule, the TGI is 3.67 µM in the experiment with HCT-116 colon; 3.75 µM with SW-620 colon; 4.83 µM in the experiment on NCI-H23 lung; 7.57 µM in the experiment with SF-295 CNS; more than 100 µM in the experiment with MCF7 breast; 21.1 µM in the experiment with SK-MEL-28 melanoma. Besides, the TGI was 15.9 µM with SNB-19 CNS, 8.81 µM in the experiment with HS 578T breast and 3.36 µM in the experiment with LOX IMVI melanoma.
